How the values were obtained:
[1] = Dog pharmacokinetic study, HM04 free base vs HM04 fumarate salt (Example 9); format: in vivo, male Beagle dogs
Experimental: The pharmacokinetics of HM04 in plasma of male Beagle dogs dosed with a single oral administration of 2 mg/kg HM04 formulated in a solution of 10% DMAC, 6% Solutol, and 84% PBS using either the HM04 free base or HM04 fumarate salt were compared. A comparison of the plasma concentration of HM04 (ng/mL) over time in dogs dosed orally with HM04 free base and HM04 fumarate salt is provided in FIG. 18. Bioavailability was calculated from a dose normalized ratio of the oral mean AUC to the intravenous mean AUC (AUCpo/AUCiv×Doseiv/Dosepo).

[2] = Rat pharmacokinetic study, single oral HM04 fumarate salt 3, 10, 30 mg/kg (Example 10); format: in vivo, male Sprague Dawley rats; details: for concentration at 0.5 h: 0.50 hours
Experimental: (§1) The pharmacokinetics of HM04 in plasma after single oral administration of HM04 fumarate salt to 6-week old male Sprague Dawley rats and male Beagle dogs (1-5 years of age) was investigated. Test formulations of 0.6 mg/mL, 2 mg/mL, and 6 mg/mL HM04 fumarate salt (based on weight of the free base) were prepared in 5% glucose solution. Doses of 3, 10, and 30 mg/kg HM04 fumarate salt (based on weight of the free base) were administered by gastric gavage as a 5 mL/kg dose volume of each of the three test formulations. Four animals were in each dose group. The formulation was administered to the dogs in fasting conditions with food provided three hours post-dosing.
A comparison of the plasma concentration of HM04 (ng/mL) in rats over time is provided in FIG. 19 and a summary of the pharmacokinetic analysis is provided in Table 5, below. […] The standard deviation associated with the mean oral bioavailability was calculated according to the formula: SDq=[^2√{square root over ((my^2·SDx^2+mx^2−SDy^2))}]/my^2 where q=mean bioavailability; mx=oral dose-normalized mean AUC, and my=IV dose-normalized mean AUC.
(§2) Plasma HM04 concentrations were measured by LC-MS/MS following protein precipitation in the 96-well plate format. At the time of analysis samples were thawed out at ambient temperature. Aliquots of 25 μL of rat or dog K3EDTA plasma were spiked with 300 μL of internal standard (25 ng/mL of HM04-d8 in acetonitrile). After gentle vortex mixing for 5 minutes and centrifugation at 2010 g for 15 minutes at 4° C., an aliquot of 100 μL of the organic phase was transferred into a fresh 96-well polypropylene plate, using a P3-Evolution robotic system (Perkin Elmer). Following dilution with 100 μL of […] ammonium formate pH 3.5, an aliquot of 10 μL was injected into the LC-MS/MS system.

[3] = Dog pharmacokinetic study, single oral HM04 fumarate salt 3, 10, 30 mg/kg (Example 10); format: in vivo, male Beagle dogs
Experimental: as §1
Oral absolute bioavailability at 3 mg/kg was calculated from the ratio of individual oral AUC∞ to the individual AUC∞ values determined following intravenous administration of 3 mg/kg HM04 fumarate salt (based on weight of the free base) to the same four male Beagle dogs.
Oral absolute bioavailability at 10 mg/kg was calculated from the ratio of individual oral AUC∞ to the individual AUC∞ values determined following intravenous administration of 10 mg/kg HM04 fumarate salt (based on weight of the free base) to the same four male Beagle dogs.
as §2

[4] = male, Beagle, plasma, 2 mg/kg oral, mean ± S.D., n=3
[5] = male, Sprague Dawley, plasma, 3 mg/kg oral, n=4
[6] = male, Sprague Dawley, plasma, 10 mg/kg oral, n=4
[7] = male, Sprague Dawley, plasma, 10 mg/kg oral, N = 3
[8] = male, Sprague Dawley, plasma, 30 mg/kg oral, n=4

HM04 plasma concentration ([1]; 2 mg/kg oral, 0.25 hours, mean ± S.D., n=3): 86.6 ± 32.2 ng/mL
HM04 plasma concentration ([1]; 2 mg/kg oral, 0.50 hours, mean ± S.D., n=3): 182.4 ± 24.1 ng/mL
HM04 plasma concentration ([1]; 2 mg/kg oral, 2 hours, mean ± S.D., n=3): 219.0 ± 63.6 ng/mL
bioavailability ([1]; male, Beagle, plasma, 2 mg/kg oral vs 1 mg/kg intravenous, dose normalized AUC ratio): 82.3 ± 36.8%
AUC(0-t) [1, 4]: 1850 ± 828 ng·h/mL
Cmax [1, 4]: 230 ± 57.1 ng/mL
Tmax [1, 4]: 1.33 ± 0.58 h
HM04 plasma concentration ([2]; 3 mg/kg oral, 24 hours, n=4, LLOQ 5.0 ng/mL): BLQ
bioavailability ([2]; male, Sprague Dawley, plasma, 3 mg/kg oral vs 3 mg/kg intravenous mean AUC): 43.3 ± 10.5%
concentration at 0.25 h [2, 5]: 34.7 ± 5.42 ng/mL
concentration at 0.5 h [2, 5]: 64.2 ± 35 ng/mL
concentration at 1 h [2, 5]: 82.4 ± 30.8 ng/mL
concentration at 2 h [2, 5]: 150 ± 53.5 ng/mL
concentration at 4 h [2, 5]: 116 ± 24 ng/mL
concentration at 8 h [2, 5]: 47 ± 10.9 ng/mL
half-life ([2]; male, Sprague Dawley, plasma, 3 mg/kg oral, N = 2): 2.82 h
AUC(0-t) [2, 5]: 762 ± 164 ng·h/mL
Cmax [2, 5]: 156 ± 47.3 ng/mL
Tmax [2, 5]: 3 ± 1.15 h
AUC ([2]; male, Sprague Dawley, plasma, 10 mg/kg intravenous, four rats, read-out: mean AUC following intravenous administration): 6170 ± 1770 ng·h/mL
bioavailability ([2]; male, Sprague Dawley, plasma, 10 mg/kg oral vs 10 mg/kg intravenous mean AUC): 54.4 ± 15.2%
concentration at 0.25 h [2, 6]: 150 ± 28.5 ng/mL
concentration at 0.5 h [2, 6]: 548 ± 603 ng/mL
concentration at 1 h [2, 6]: 456 ± 100 ng/mL
concentration at 2 h [2, 6]: 652 ± 62.1 ng/mL
concentration at 4 h [2, 6]: 387 ± 134 ng/mL
concentration at 8 h [2, 6]: 215 ± 97.3 ng/mL
concentration at 24 h ([2]; male, Sprague Dawley, plasma, 10 mg/kg oral, 24 hours, N = 1, three of four animals below level of quantification): 8.73 ± 17.5 ng/mL
AUC(0-t) [2, 7]: 3360 ± 685 ng·h/mL
half-life [2, 7]: 4.88 h
Cmax [2, 6]: 769 ± 458 ng/mL
Tmax [2, 6]: 1.38 ± 0.75 h
concentration at 0.25 h [2, 8]: 950 ± 465 ng/mL
concentration at 0.5 h [2, 8]: 1400 ± 961 ng/mL
concentration at 1 h [2, 8]: 2290 ± 537 ng/mL
concentration at 2 h [2, 8]: 2560 ± 530 ng/mL
concentration at 4 h [2, 8]: 2120 ± 422 ng/mL
concentration at 8 h [2, 8]: 1350 ± 179 ng/mL
concentration at 24 h ([2]; male, Sprague Dawley, plasma, 30 mg/kg oral, 24 hours, n=4): 14.6 ± 6.8 ng/mL
AUC(0-t) [2, 8]: 26200 ± 3970 ng·h/mL
Cmax [2, 8]: 2590 ± 524 ng/mL
Tmax [2, 8]: 1.75 ± 0.5 h
half-life [2, 8]: 2.65 ± 0.193 h
clearance [3]: low clearance
oral bioavailability [3]: high
HM04 plasma concentration ([3]; 30 mg/kg oral, 0 hours (pre-dose), n=4, LLOQ 2.5 ng/mL): BLQ
bioavailability ([3]; male, Beagle, plasma, 3 mg/kg oral vs 3 mg/kg intravenous, individual AUC∞ ratios): 55.6 ± 18.8%
concentration at 0 h ([3]; male, Beagle, plasma, 3 mg/kg oral, 0 hours (pre-dose), n=4): 5.34 ± 3.83 ng/mL
concentration at 0.25 h ([3]; male, Beagle, plasma, 3 mg/kg oral, 0.25 hours, n=4): 66 ± 26.8 ng/mL
concentration at 0.5 h ([3]; male, Beagle, plasma, 3 mg/kg oral, 0.50 hours, n=4): 360 ± 238 ng/mL
concentration at 1 h ([3]; male, Beagle, plasma, 3 mg/kg oral, 1 hour, n=4): 300 ± 127 ng/mL
concentration at 2 h ([3]; male, Beagle, plasma, 3 mg/kg oral, 2 hours, N = 3 (Dog 3 excluded as outlier)): 287 ± 158 ng/mL
SMILES: CN1CCC(N(C)C(=O)N[C@H](c2ccc(-c3cnccn3)c(Cl)c2Cl)C(F)(F)F)CC1.O=C(O)/C=C/C(=O)O [HM04 fumarate salt, (R)-3-(1-(2,3-dichloro-4-(pyrazin-2-yl)phenyl)-2,2,2-trifluoroethyl)-1-methyl-1-(1-methylpiperidin-4-yl)urea fumarate salt]
